Measured values reported in patent US20220017516A1, “LOX INHIBITORS” (THE INSTITUTE OF CANCER RESEARCH: ROYAL CANCER HOSPITAL, priority 2018, published 2022).
Substitutions are numbered along the chain they refer to. Where two headings read alike, the source gives them in different places.

Tests used:
LOX [1] = biological target: T1, LOX (Mus musculus, UniProt P28301); test: LOX activity in cysts assay (roGFP2 LOX biosensor in MDCK cysts); type: cell-based; conditions: LOX; for inhibition at 10 µM: read-out: Cyst LOX @ 10 uM (% inhibition)
T1 construct: Full length LOX cDNA was then PCR cloned into pEGFP-N1 (Clonetech), or biosensor vector proGFP2—N1; expressed in transfected cells; host or cells: MDCK cells grown as cysts on Matrigel
T1 sequence (P28301 163-411): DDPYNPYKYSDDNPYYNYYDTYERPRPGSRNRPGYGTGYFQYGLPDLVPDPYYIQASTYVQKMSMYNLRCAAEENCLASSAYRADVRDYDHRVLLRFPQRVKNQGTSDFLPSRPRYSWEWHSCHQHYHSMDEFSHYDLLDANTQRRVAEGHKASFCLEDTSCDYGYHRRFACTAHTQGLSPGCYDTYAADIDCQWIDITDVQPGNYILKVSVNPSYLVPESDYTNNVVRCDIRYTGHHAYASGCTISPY
Experimental: All cell lines used in this study were purchased from American Type Culture Collection (ATCC). Mycoplasma contamination was routinely monitored by PCR. Cells used were not found to be Mycoplasma positive. MDCK cell lines were cultured in Dulbecco's Modified Eagle Medium (DMEM) supplemented with 10% fetal bovine serum (FBS) and 1% Penicillin Streptomycin solution (Pen Strep). For GFP constructs transfection in MDCK cells, lipofectamine 3000 was used according to manufactures protocols. Cells were either selected with G418 (Life Technologies) at 5 mg/ml. All cell culture reagents were purchased from Life Technologies.
To produce MDCK cysts, cells were cultured on Matrigel (Corning) with 2% Matrigel supplemented in DMEM with 10% FBS. Cysts were allowed to form for 10 days before subsequent studies.
Mouse LOX cDNA was purchased from OriGene. Full length LOX cDNA was then PCR cloned into pEGFP-N1 (Clonetech), or biosensor vector proGFP2—N1 (Hanson, 2004) using the following primers, […] (forward primer) and […] (reverse primer). For the insertion into pEGFP-N1 or proGFP2—N1, Nhel and Xhol restriction sites were added to forward and reverse primers accordingly. Mutant LOX constructs were made using QuickChange II site-directed mutagenesis kit (Agilent Technologies) following manufacture's protocol using LOX-GFP as template. To generate, roGFP2 versions of LOX mutant constructs, LOX mutant cDNA was transferred from pEGFP-N1 to proGFP2—N1 using Nhel and Xhol.
All photomicrographs were taken with a Leica TCS SP8 X confocal system. For LOX biosensor imaging, live MDCK cysts were used. The oxidised biosensor was excited using a 405 nm laser, while the reduced biosensor was excited with a 488 nm laser. Emission of the biosensor was recorded at 500 nm-530 nm range using sequential scans. Ratio images were generated following a published protocol {Kardash, 2011 #376}. Note, while the published protocol generates YFP/CFP ratio images, we used it to generate Oxidised/Reduced (roGFP2 ratio) ratio images. The roGFP2 ratio at the basal surface of MDCK cysts was used to indicate LOX inhibition. LOX inhibitors were added 30 min prior to imaging.
For clarity, readout for DMSO treated cysts represents 0% inhibition (no inhibition) and readout for BAPN at 1 mM is used as 100% inhibition (full inhibition).

LOX [2] = biological target: T2, LOX (Sus scrofa, UniProt P45845); test: LOX isoform activity assay (ROS Glo), LOX; type: biochemical, pig; conditions: 1 h incubation with enzyme
T2 construct: LOX was extracted from pig skin by previously described methods; from tissue; host or cells: pig skin
T2 sequence (P45845 1-249): T1 sequence (P28301 163-411) with D20X, T21X, Y22X, N31Y, S80T, N142S, A188N, Q202K, T224S, D231E
Experimental: (§1) LOX was extracted from pig skin by previously described methods (Shackleton and Hulmes, 1990). LOXL2 and LOXL3 were obtained from R&D Systems/Bio-techne. The Promega ROS Glo assay kit (G8821) was used to assess enzyme activity. Overall, test compound was added to either 384 well assay plates (Greiner) using a Labcyte Echo™ Acoustic Handler or to 96 well plates for a final assay concentration of 100, 30, 10, 3, 1, 0.3, 0.1, 0.03, 0.01 and 0.003 μM final assay concentration. Enzymes were diluted according to specific pre-determined activity in assay buffer (100 mM CHES, pH 9, 0.05% (w/v) pluronic F-127, 0.5% (w/v) BSA, 1 mM MgCl2, 1 M urea, 100 mM NaCl) and added to the plate. For LOXL2, the mixture was incubated for 20 min, 1 h or 20 h; for LOX and LOXL3, incubation time was 1 h. Cadaverine and H2O2 substrate were then added to each well (final assay concentration 19.56 mM and 25 μM respectively) and the plates were incubated for 1.5 h (for LOX) or 1 h (for LOXL2 and LOXL3) at room temperature. Finally, luciferin detection reagent was added and plates were incubated for 20 min at room temperature, protected from light. Luminescence was measured using a BMG LABTECH PHERAstar FS reader and resulting IC50 values were calculated using GraphPad Prism software.

LOXL2 = biological target: T3, LOXL2 (Homo sapiens, UniProt Q9Y4K0); test: LOX isoform activity assay (ROS Glo), LOXL2; type: biochemical
T3 construct: purchased R&D Systems/Bio-techne
T3 sequence (Q9Y4K0 26-774): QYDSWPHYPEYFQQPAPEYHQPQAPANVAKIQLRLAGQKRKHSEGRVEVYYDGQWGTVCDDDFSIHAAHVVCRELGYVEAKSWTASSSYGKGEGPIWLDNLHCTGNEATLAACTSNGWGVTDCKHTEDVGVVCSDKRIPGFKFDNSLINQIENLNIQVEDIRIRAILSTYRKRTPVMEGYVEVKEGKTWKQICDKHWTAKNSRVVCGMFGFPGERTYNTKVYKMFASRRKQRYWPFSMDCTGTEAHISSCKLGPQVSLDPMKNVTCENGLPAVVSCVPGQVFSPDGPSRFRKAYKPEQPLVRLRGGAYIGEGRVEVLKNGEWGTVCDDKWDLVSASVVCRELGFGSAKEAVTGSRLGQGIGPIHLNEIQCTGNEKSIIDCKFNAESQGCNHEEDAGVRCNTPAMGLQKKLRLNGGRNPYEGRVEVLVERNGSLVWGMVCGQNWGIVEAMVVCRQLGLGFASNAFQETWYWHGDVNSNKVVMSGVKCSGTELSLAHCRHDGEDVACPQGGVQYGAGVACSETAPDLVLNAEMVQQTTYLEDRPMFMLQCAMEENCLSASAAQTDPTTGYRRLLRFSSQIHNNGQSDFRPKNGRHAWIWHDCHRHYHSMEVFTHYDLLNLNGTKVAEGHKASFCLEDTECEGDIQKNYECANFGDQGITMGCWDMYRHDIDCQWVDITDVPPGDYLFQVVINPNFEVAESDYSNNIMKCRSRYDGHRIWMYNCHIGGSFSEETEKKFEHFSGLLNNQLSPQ
Experimental: as §1
In another setting, LOXL2 enzyme was diluted according to specific pre-determined activity in assay buffer (100 mM CHES, pH 9, 0.05% (w/v) pluronic F-127, 0.5% (w/v) BSA, 1 mM MgCl2, 1 M urea, 100 mM NaCl). Overall, 0.5 μl test compound was added to 40 μl assay buffer+LOXL2 at 100, 30, 10, 3, 1, 0.3, 0.1, 0.03, 0.01 and 0.003 μM (final concentration) in a 96-well white polystyrene, flat bottom plates (Fisher) and incubated for the indicated time at room temperature. 10 μl of assay buffer containing 97.8 mM cadaverine and 125 μM H2O2 substrate (final assay concentration 19.56 mM and 25 μM respectively) were added to each well and plates were incubated for 1 h at room temperature. Finally, 50 μl per well luciferin detection reagent was added and plates were incubated for 20 min at room temperature, protected from light. Luminescence was measured with an integration time of 500 ms per well using a SpectaMax M5 plate reader and resulting IC50 values were calculated using GraphPad Prism software.

[3] = biological target: T4, monoamine oxidase A (MAO-A) (Homo sapiens, UniProt P21397); test: Amine oxidase activity assay (MAO-Glo), MAO-A; type: biochemical
T4 construct: purchased Promega V1452
T4 sequence (P21397 1-527): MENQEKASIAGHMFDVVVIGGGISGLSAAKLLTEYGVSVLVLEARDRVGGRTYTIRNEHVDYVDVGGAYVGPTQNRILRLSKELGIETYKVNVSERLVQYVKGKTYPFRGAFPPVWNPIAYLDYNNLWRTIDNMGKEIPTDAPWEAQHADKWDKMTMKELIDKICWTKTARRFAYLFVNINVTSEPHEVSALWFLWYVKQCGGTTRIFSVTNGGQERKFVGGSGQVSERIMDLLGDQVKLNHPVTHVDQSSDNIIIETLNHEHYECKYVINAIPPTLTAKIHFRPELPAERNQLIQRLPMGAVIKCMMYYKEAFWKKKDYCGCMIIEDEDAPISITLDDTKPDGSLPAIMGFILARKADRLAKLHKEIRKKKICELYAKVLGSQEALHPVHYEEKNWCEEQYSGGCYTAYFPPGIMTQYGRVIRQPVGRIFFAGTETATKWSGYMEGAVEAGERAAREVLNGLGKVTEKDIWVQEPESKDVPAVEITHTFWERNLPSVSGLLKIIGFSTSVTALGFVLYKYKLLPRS
Experimental: (§2) The Promega MAO-Glo assay kit (V1402) was used to assess monoamine oxidase A (MAO-A) and monoamine oxidase B (MAO-B) activity. MAO substrate was prepared at 80 μM with the specific MAO-A/B reaction buffer. Overall, 0.5 μl test compound was added to 25 μl MAO substrate at 100, 30, 10, 3, 1, 0.3, 0.1, 0.03, 0.01 and 0.003 μM (final concentration) in a 96-well white, flat bottom plate. Overall, 25 μl of 1:520 dilution of MAO-A enzyme (Promega, V1452) or 25 μl of 1:52 dilution of MAO-B enzyme (Sigma, M7441) in specific MAO-A/B reaction buffer was added to each well (enzyme prepared at 2×final concentration) and plates were incubated for 1 h at room temperature. Finally, 50 μl per well luciferin detection reagent was added and plates were incubated for 20 min at room temperature, protected from light. Luminescence was measured with an integration time of 500 ms per well using a SpectaMax M5 plate reader and resulting IC50 values were calculated using GraphPad Prism software.
(§3) In another setting, the DAO and MAO assays were performed in 384-well plates (Greiner) and test compound was added using a Labcyte Echo™ Acoustic Handler for the same final concentrations as in the 96-well setting. Luminescence was measured with BMG LABTECH PHERAstar FS plate reader.

[4] = biological target: T5, monoamine oxidase B (MAO-B) (Homo sapiens, UniProt P27338); test: Amine oxidase activity assay (MAO-Glo), MAO-B; type: biochemical
T5 construct: purchased Sigma M7441
T5 sequence (P27338 1-520): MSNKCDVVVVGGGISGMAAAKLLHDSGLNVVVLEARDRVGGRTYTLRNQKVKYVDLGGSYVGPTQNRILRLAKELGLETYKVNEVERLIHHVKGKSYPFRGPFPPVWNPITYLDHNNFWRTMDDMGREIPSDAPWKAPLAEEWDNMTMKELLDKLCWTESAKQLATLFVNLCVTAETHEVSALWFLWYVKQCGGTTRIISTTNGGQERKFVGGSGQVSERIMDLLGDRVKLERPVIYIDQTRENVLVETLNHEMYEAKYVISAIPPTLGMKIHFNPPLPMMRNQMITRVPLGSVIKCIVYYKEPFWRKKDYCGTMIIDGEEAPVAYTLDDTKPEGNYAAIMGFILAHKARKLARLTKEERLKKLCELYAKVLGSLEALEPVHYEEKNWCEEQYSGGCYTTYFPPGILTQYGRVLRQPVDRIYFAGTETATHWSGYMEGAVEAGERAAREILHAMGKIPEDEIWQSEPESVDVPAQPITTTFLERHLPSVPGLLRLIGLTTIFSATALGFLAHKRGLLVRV
Experimental: as §2, §3

[5] = 1 hr incubation with enzyme; read-out: LOXL2 IC50 b) 1 hr
[6] = 20 hr incubation with enzyme; read-out: LOXL2 IC50 c) 20 hr

Row | Compound | IC50 (LOX [2]) | IC50 (LOXL2; [5]) | IC50 (LOXL2; [6]) | also measured
1 | CCOc1ccc(N2C[C@H]3CN(C(=O)Nc4ccc(S(=O)(=O)CCN)cc4)C[C@@H]2C(C)(C)C3)cc1 [Example 37, (1S,5S)—N-(4-((2-aminoethyl)sulfonyl)phenyl)-6-(4-ethoxyphenyl)-9,9-dimethyl-3,6-diazabicyclo[3.2.2]nonane-3-carboxamide] | 26 µM | 20 µM | – | inhibition at 10 µM (LOX [1]): 78%
2 | CCOc1ccc(N2C[C@H]3CN(C(=O)c4cccc(S(=O)(=O)CCN)c4)C[C@@H]2C(C)(C)C3)cc1 [Example 32, (3-((2-aminoethyl)sulfonyl)phenyl)((1S,5S)-6-(4-ethoxyphenyl)-9,9-dimethyl-3,6-diazabicyclo[3.2.2]nonan-3-yl)methanone] | 23 µM | – | 3 µM | IC50 [3]: > 100 µM; IC50 [4]: > 100 µM
3 | CCOc1ccc(N2C[C@@H]3C[C@H]2CN3C(=O)C(F)S(=O)(=O)CCN)cc1 (mixture of isomers) [Example 16, 2-((2-aminoethyl)-sulfonyl)-1-((1S,4S)-5-(4-ethoxyphenyl)-2,5-diazabicyclo-[2.2.1]heptan-2-yl)-2-fluoroethan-1-one] | – | – | 0.14 µM | inhibition at 2.5 µM (LOX [1]; 2.5 uM (stated in cell), DMSO = 0%, BAPN 1 mM = 100% inhibition, read-out: Cyst LOX (% inhibition) @ 2.5 uM): 73%
4 | CCOc1ccc(N2C[C@H]3CN(C(=O)C(CC(C)C)S(=O)(=O)CCN)C[C@@H]2C(C)(C)C3)cc1 (stereo partly drawn) [Example 40, 2-((2-aminoethyl)sulfonyl)-1-((1S,5S)-6-(4-ethoxyphenyl)-9,9-dimethyl-3,6-diazabicyclo[3.2.2]nonan-3-yl)-4-methylpentan-1-one] | – | 1.1 µM | – | inhibition at 10 µM (LOX [1]; 10 uM, DMSO = 0%, BAPN 1 mM = 100% inhibition, inhibitor added 30 min prior to imaging): 79%
